The source made the active and inactive calls. The rule behind the calls is not given here.
What was measured:
[1] = target: Delta-type opioid receptor (Mus musculus, UniProt P32300); experiment: Agonist activity at delta opioid receptor in mouse vas deferens assessed as inhibition of electrically-stimulated muscle contraction
[2] = target: Delta-type opioid receptor (Rattus norvegicus, UniProt P33533); experiment: Displacement of [3H]-deltorphin 2 from delta opioid receptor in rat GH3 cells after 60 mins by scintillation counting analysis; assay type: cell-based
Sequence of Delta-type opioid receptor (Rattus norvegicus, UniProt P33533) (P33533 whole entry): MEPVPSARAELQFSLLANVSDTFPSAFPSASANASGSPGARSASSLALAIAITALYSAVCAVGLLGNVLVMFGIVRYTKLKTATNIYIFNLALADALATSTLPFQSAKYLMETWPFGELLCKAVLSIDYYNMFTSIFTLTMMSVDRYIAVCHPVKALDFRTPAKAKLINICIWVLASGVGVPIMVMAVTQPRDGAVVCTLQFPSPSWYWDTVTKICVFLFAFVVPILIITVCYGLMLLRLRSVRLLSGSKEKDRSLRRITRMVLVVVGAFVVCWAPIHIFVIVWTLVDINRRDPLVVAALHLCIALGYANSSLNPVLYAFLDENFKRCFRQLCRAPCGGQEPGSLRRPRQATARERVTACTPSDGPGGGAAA

[3] = Agonist activity at delta opioid receptor in mouse/rat DRGF11 hybrid cells expressing GFP assessed as induction of ERK1/2 phosphorylation at 10^-9 to 10^-5 M after 5 mins by Western blotting analysis

Sequence of Delta-type opioid receptor (Mus musculus, UniProt P32300) (P32300 whole entry): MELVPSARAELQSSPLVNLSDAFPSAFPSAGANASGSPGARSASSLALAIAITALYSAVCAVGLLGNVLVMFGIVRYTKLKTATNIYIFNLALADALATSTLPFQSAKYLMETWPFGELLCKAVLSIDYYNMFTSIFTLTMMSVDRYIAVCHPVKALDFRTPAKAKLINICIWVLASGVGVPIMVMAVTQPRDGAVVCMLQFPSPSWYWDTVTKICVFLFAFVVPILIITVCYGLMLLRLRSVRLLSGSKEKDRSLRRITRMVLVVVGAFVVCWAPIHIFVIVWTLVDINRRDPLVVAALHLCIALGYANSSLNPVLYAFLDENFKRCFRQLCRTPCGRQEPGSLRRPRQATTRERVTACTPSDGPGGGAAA

| Compound | EC50 [1] [µM] | Ki [2] [µM] | Activity [3] |
| --- | --- | --- | --- |
| CC(C)C[C@H](NC(=O)[C@H](Cc1ccccc1)NC(=O)CNC(=O)Cn1cc([C@@H](N)Cc2ccc(O)cc2)nn1)C(=O)O | > 1.5 | > 1 |  |
| CC(C)C[C@H](NC(=O)[C@H](Cc1ccccc1)NC(=O)Cn1cc(CNC(=O)[C@@H](N)Cc2ccc(O)cc2)nn1)C(=O)O | > 1.5 | > 1 |  |
| CC(C)C[C@H](NC(=O)[C@H](Cc1ccccc1)n1cc(CNC(=O)CNC(=O)[C@@H](N)Cc2ccc(O)cc2)nn1)C(=O)O | > 1.5 | 0.46 |  |
| CC(C)C[C@@H](C(=O)O)n1cc([C@H](Cc2ccccc2)NC(=O)CNC(=O)CNC(=O)[C@@H](N)Cc2ccc(O)cc2)nn1 | 0.83 | 0.089 | Active |

Source: ChEMBL document CHEMBL2429799, “Systematic replacement of amides by 1,4-disubstituted[1,2,3]triazoles in Leu-enkephalin and the impact on the delta opioid receptor activity” (Bioorg Med Chem Lett, 2013)
